ChEMBL document CHEMBL4419169, “Novel Ferroportin Inhibitors” (2018)
Blank lines part the entries; values can stand above or below the compound they belong to. Active and inactive are the calls of the source. No cut-off for these calls is given here.

Legend:
[1] = biological target: T1, Ferroportin (Mus musculus) (UniProt Q9JHI9); test: Inhibition of ferroportin in mouse J774 cells assessed as induce ferroportin ubiquitination and degradation at 0.8 uM incubated for 10 mins by immunoprecipitation assay; assay type: cell-based
T1 sequence (whole entry): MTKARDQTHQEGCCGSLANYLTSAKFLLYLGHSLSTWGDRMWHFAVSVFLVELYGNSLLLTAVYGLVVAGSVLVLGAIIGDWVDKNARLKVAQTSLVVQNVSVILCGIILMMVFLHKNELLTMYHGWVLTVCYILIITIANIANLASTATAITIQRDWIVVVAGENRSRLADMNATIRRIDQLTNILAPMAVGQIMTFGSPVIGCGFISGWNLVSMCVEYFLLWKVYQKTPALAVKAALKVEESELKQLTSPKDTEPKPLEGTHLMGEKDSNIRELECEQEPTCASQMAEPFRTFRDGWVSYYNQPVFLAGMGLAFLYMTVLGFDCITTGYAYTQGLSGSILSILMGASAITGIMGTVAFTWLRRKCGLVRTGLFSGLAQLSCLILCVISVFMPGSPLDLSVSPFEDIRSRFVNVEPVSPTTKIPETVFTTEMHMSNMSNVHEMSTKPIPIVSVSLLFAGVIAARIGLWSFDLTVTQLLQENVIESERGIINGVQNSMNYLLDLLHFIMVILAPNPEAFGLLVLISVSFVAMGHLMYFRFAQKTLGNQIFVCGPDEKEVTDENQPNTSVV

[2] = biological target: T1, Ferroportin (Mus musculus); test: Inhibition of ferroportin in mouse J774 cells assessed as induce ferroportin ubiquitination and degradation at 0.8 uM incubated for 120 mins by immunoprecipitation assay; assay type: cell-based
Rattus norvegicus = test: Prevention of iron absorption in orally dosed anemic Wistar rat model of iron absorption assessed as inhibition of increase in serum iron pre-dosed 1 hr before ferrous sulfate dosing and measured 3 hours after iron dosing; assay type: functional, organism-based
[3] = biological target: T1, Ferroportin (Mus musculus); test: Inhibition of ferroportin in mouse J774 cells assessed as induce ferroportin ubiquitination and degradation at 1.5 uM incubated for 10 mins by immunoprecipitation assay; assay type: cell-based
[4] = biological target: T1, Ferroportin (Mus musculus); test: Inhibition of ferroportin in mouse J774 cells assessed as induce ferroportin ubiquitination and degradation at 1.5 uM incubated for 120 mins by immunoprecipitation assay; assay type: cell-based
[5] = biological target: T1, Ferroportin (Mus musculus); test: Inhibition of ferroportin in mouse J774 cells assessed as induce ferroportin ubiquitination and degradation at 0.3 uM incubated for 10 mins by immunoprecipitation assay; assay type: cell-based
Mus musculus [6] = test: Prevention of hyperferremia in iron overloaded beta2-microglobulin deficient mouse assessed as reduction in serum iron level at 50 mg/kg, po measured after 3 hrs relative to control; assay type: functional, organism-based
[7] = biological target: T1, Ferroportin (Mus musculus); test: Inhibition of ferroportin in mouse J774 cells assessed as induce ferroportin ubiquitination and degradation at 0.3 uM incubated for 120 mins by immunoprecipitation assay; assay type: cell-based
Mus musculus [8] = test: Induction of hypoferremia in orally dosed wild type C57BL/6 mouse assessed as decrease in serum iron levels measured after 3 hrs post dose; assay type: functional, organism-based
[9] = biological target: T1, Ferroportin (Mus musculus); test: Inhibition of ferroportin in mouse J774 cells assessed as induce ferroportin ubiquitination and degradation at 0.05 uM incubated for 120 mins by immunoprecipitation assay; assay type: cell-based
[10] = biological target: T1, Ferroportin (Mus musculus); test: Inhibition of ferroportin in mouse J774 cells assessed as induce ferroportin ubiquitination and degradation at 0.05 uM incubated for 10 mins by immunoprecipitation assay; assay type: cell-based

SMILES: Cc1cccnc1CNC(=O)c1csc(CCNCc2nc3ccccc3[nH]2)n1
Activity (Rattus norvegicus): Dose-dependent effect

SMILES: O=C(NCc1ncccc1F)c1cnn(C2CN(CCc3nc4ccccc4[nH]3)C2)c1
inhibition [3]: Active
inhibition [4]: Active

SMILES: O=C(NCc1ncccc1F)c1cnn(CCNCCc2nc3ccccc3[nH]2)c1
inhibition [5]: Active
inhibition [7]: Active

Continued, in another order:

inhibition [1]: Active
inhibition [2]: Active
SMILES: O=C(NCc1ncccc1F)c1coc(CCNCc2nc3ccccc3[nH]2)n1

inhibition [5]: Active
inhibition [7]: Active
SMILES: O=C(NCc1ncccc1F)c1csc(CCNCCc2nc3ccccc3[nH]2)n1
Activity (Mus musculus [6]): Active
Activity (Mus musculus [8]): Dose-dependent effect

inhibition [9]: Active
inhibition [10]: Active
SMILES: O=C(NCc1ncccc1F)c1coc(CCN(CCc2nc3ccccc3[nH]2)CCc2nc3ccccc3[nH]2)n1
